This is an account of results in patent US20170319572A1, “COMBINATION DRUG TREATMENT FOR HEPATITIS C INFECTION” (JANSSEN PHARMACEUTICALS, INC., priority 2015, published 2017).

The term Cmax denotes the peak of the concentration-time curve.

Entries after “also recorded” stand apart in the source; their conditions may differ.

For data set [1], the system named is CYP (any CYP). Briefly: CYP inhibition. To be noted: on any CYP.
Data set [2] is described as follows: Drug-drug interaction study in humans (Phase-1, open-label, two-group, fixed-sequence, PK). The following applies: for increase of exposure caused by SMV: co-administration of SMV. As to the method:
A drug-drug interaction study (DDI) study is a study designed to investigate whether a drug alters the pharmacokinetics of another drug or drugs or their metabolites.
Compound (III)—Subjects received 800 mg of Compound (III) once daily from Days 1-3, Days 11-13, and Days 21-23. PK blood samples for determination of Compound (III) and metabolite concentrations were collected in reference to the Day 3, Day 13, and Day 23 doses.
Simeprevir—Subjects received 150 mg of Simeprevir (SMV) once daily from Days 4-23. PK blood samples for determination of SMV concentrations were collected in reference to the Day 10, Day 13, Day 20, and Day 23 doses.
Odalasvir—Subjects received a loading dose of 150 mg on Day 14, and 50 mg of Odalasvir once daily from Days 15-23. PK blood samples for determination of Odalasvir concentrations were collected in reference to the Day 20 and Day 23 doses.
Compound (III)—Subjects received 800 mg of Compound (III) once daily from Days 1-3, Days 11-13 and Days 21-23. PK blood samples for determination of Compound (III) and metabolite concentrations were collected in reference to the Day 3, Day 13, and Day 23 doses.
Simeprevir—Subjects receive 150 mg of SMV once daily from Days 4-23. PK blood samples for determination of SMV concentrations were collected in reference to the Day 20 and Day 23 doses.
Odalasvir—Subjects receive a loading dose of 150 mg on Day 4, and 50 mg of Odalasvir once daily from Days 5-23. PK blood samples for determination of Odalasvir concentrations were collected in reference to the Day 10, Day 13, Day 20, and Day 23 doses.
This drug-drug interaction study was intended to assess the safety and tolerability of the described drug combinations at pre-defined time points throughout the study. Study completion/follow-up visit(s) were performed 7 and 28 days after completion of the last study assessment.
A primary objective was to evaluate the effect of multiple oral doses of Odalasvir (alone), Simeprevir (alone), and Odalasvir and Simeprevir on the multiple oral dose PK of Compound (III) (and certain metabolites thereof, such as the major metabolites in systemic circulation) in healthy volunteers. Other objectives were to evaluate the safety and tolerability of multiple oral doses of Compound (III) when administered alone and in combination with single and multiple oral doses of Odalasvir and/or Simeprevir in healthy volunteers; to determine the potential effect of Compound of Compound (III) and/or Odalasvir on the steady-state PK of Simeprevir in healthy volunteers; to determine the potential effect of Compound of Compound (III) and/or Simeprevir on the steady state PK of Odalasvir in healthy volunteers.
Various other PK parameters were estimated including: Clast, t1/2, Tmax, Tlast, CL/F, Vz/F, and λz.
The following daily doses were employed:
Odalasvir: 150 mg loading dose; 50 mg for the remainder of the study period.

The target in data set [3] is T1, OATP1B3 (Homo sapiens, UniProt Q9NPD5).
T1 sequence (Q9NPD5 1-702): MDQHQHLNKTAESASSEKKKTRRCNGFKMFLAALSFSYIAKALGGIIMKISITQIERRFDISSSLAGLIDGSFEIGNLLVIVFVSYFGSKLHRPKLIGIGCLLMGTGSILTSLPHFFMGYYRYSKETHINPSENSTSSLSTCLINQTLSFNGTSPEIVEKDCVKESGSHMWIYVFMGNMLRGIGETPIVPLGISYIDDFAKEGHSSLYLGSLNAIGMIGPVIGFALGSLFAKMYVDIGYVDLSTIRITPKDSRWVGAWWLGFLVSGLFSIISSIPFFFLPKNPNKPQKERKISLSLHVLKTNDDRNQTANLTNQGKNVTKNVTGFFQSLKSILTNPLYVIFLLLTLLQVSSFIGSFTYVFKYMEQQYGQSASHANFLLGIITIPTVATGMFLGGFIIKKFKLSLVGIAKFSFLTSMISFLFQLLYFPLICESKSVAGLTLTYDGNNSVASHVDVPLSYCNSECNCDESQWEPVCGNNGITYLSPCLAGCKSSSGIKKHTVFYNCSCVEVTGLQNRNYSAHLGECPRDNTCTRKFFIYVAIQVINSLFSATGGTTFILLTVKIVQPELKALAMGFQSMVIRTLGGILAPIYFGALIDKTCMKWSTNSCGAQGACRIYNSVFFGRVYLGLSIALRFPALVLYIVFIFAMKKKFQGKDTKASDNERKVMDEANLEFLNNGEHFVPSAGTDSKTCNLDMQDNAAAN
To be noted: cited from earlier work.

In data set [4] the target is T2, BCRP (Homo sapiens, UniProt Q9UNQ0).
T2 sequence (Q9UNQ0 1-655): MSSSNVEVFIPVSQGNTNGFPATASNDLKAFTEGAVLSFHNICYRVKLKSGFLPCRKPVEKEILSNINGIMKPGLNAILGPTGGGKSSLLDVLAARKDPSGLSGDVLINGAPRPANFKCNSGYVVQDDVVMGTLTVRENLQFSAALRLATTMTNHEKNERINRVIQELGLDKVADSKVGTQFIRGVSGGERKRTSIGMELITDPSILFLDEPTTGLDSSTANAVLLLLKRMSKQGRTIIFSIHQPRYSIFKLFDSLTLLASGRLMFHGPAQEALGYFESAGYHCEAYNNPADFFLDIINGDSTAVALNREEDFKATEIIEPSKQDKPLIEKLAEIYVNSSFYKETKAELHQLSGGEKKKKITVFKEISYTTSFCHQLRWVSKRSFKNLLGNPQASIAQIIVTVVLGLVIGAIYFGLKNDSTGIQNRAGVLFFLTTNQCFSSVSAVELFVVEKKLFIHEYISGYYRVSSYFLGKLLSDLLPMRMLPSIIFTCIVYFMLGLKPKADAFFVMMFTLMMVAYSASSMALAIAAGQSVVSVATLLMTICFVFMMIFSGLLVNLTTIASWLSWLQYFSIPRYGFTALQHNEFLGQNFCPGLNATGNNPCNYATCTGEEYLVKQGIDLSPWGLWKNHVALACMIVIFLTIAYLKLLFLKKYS
To be noted: cited from earlier work.

Turning to `CC(C)OC(=O)[C@H](C)N[P@](=O)(OC[C@@]1(F)O[C@@H](n2ccc(=O)[nH]c2=O)[C@](C)(O)[C@@H]1O)Oc1ccccc1` [Compound (III), isopropyl ((S)-(((2S,3S,4R,5R)-5-(2,4-dioxo-3,4-dihydropyrimidin-1 (2H)-yl)-2-fluoro-3,4-dihydroxy-4-methyltetrahydrofuran-2-yl)methoxy)(phenoxy)phosphoryl)-L-alaninate], the CYP inhibition potential entry in data set [1] is “limited CYP inhibition potential”. Further, in data set [2] (DDI study, co-administration of Odalasvir), the “increase of exposure caused by Odalasvir” value worked out at 4 ×. In data set [2] (DDI study), the “increase of exposure caused by SMV” value came to 3 ×. Also, the Cmax in data set [2] (Group 1, Day 13, Compound (III) 800 mg QD + SMV 150 mg QD) is 376.2 ng/mL; in data set [2] (Group 1, Day 23, Compound (III) 800 mg + SMV 150 mg + ODV 50 mg QD), 746.6 ng/mL; in data set [2] (Group 2, Day 3, Compound (III) 800 mg QD alone) it was 150.7 ng/mL; in data set [2] (Group 2, Day 13, (Compound (III) + SMV) as printed in Table 1) it was 515.9 ng/mL; in data set [2] (Group 2, Day 23, Compound (III) 800 mg + SMV 150 mg + ODV 50 mg QD), 949.6 ng/mL; in data set [2] (healthy volunteers, Group 1, Day 3, Compound (III) 800 mg QD alone), 161.6 ng/mL. Further, in data set [2] (both, human, in vivo), the “increase of exposure in the combination” value is 7-8 times. Also, the “bioavailability with SMV and ODV co-administered compared to Compound (III) alone” value in data set [2] (human subjects) is listed as “approximately 8 fold”. In addition, the “inhibition of OATP1B3” value in data set [3] is recorded as “no in vitro inhibition”. Further, in data set [4], the “inhibition of BCRP” value is “no in vitro inhibition”.
`COC(=O)N[C@H](C(=O)N1[C@H](c2nc3cc(-c4cc5ccc4CCc4ccc(c(-c6ccc7[nH]c([C@@H]8C[C@@H]9CCCC[C@@H]9N8C(=O)[C@@H](NC(=O)OC)C(C)C)nc7c6)c4)CC5)ccc3[nH]2)C[C@@H]2CCCC[C@@H]21)C(C)C` [ODV, methyl [(2S)-1-[(2S,3aS,7aS)-2-[6-[11-[2-[(2S,3aS,7aS)-1-[(2S)-2-[(methoxycarbonyl)amino]-3-methylbutanoyl]octahydro-1H-indol-2-yl]-1H-benzimidazol-6-yl]tricyclo[8.2.2.2^4,7]hexadeca-1(12),4,6,10,13,15-hexaen-5-yl]-1H-benzimidazol-2-yl]octahydro-1H-indol-1-yl]-3-methyl-1-oxobutan-2-yl]carbamate]: the CYP inhibition potential result in data set [1] is on record as “does not inhibit cytochrome P450 enzymes; also recorded: does not inhibit CYP450 activity”. The “increase of exposure, effect of the three Compounds” value in data set [2] (DDI study, Compound (III) + SMV + Odalasvir together) is listed as 1.5 ×. Moreover, in data set [2] (DDI study, co-administration of Compound (III)), the “effect of Compound (III) on exposure/bioavailability” value was “no apparent effect; also recorded: does not alter the bioavailability”. The “increase of exposure caused by SMV” value in data set [2] (DDI study) is 1.6 ×. Further, the “increase of exposure in the combination” value in data set [2] (human in vivo study (Example 1), three drugs combined) stood at 1.5 times. Moreover, in data set [2] (human subjects), the “increase of exposure by SMV” value was determined as 1.6 fold. Besides, the “inhibition of OATP1B3” value in data set [3] is listed as “no inhibition”. In addition, the “inhibition of BCRP” value in data set [4] is given as “no inhibition”.
